Measured values reported in ChEMBL document CHEMBL1201862, “PubChem BioAssay data set” (2004).
Active and inactive are the calls of the source.

How the values were obtained:
[1] = THP-1 cell cytotoxicity, dose response, cytotoxicity control for non-replicating M. tuberculosis project (AID 489025); format: functional
Hexokinase HKDC1 = molecular target: T1, Hexokinase HKDC1 (Homo sapiens, UniProt Q2TB90); assay: inhibition of HKDC1 glucose phosphorylation – biochemical, W721R variant, dose response (AID 504729); format: functional
T1 sequence (Q2TB90 whole entry): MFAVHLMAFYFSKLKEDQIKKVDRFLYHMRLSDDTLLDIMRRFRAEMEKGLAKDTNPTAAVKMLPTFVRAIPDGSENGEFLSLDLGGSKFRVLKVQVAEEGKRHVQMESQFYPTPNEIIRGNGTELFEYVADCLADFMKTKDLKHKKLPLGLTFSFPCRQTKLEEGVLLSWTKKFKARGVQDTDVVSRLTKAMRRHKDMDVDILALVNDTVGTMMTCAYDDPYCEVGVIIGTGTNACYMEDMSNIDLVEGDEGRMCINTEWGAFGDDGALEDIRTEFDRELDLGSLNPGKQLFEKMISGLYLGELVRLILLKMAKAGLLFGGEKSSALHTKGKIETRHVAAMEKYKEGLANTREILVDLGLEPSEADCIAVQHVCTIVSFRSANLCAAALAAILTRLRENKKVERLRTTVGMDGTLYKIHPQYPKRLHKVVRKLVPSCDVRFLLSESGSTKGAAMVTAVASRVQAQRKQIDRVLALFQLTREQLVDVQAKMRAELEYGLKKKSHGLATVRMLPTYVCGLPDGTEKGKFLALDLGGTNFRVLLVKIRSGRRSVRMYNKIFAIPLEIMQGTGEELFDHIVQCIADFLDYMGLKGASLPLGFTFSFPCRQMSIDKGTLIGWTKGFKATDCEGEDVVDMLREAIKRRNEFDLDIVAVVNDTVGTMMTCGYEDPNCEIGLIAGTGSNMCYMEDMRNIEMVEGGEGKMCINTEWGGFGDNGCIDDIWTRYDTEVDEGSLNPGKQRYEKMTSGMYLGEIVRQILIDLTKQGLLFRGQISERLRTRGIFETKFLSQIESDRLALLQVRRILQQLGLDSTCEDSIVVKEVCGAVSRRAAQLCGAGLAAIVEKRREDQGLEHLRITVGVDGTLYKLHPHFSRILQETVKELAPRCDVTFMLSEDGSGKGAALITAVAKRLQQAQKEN

Beta-galactosidase = Beta-galactosidase (Escherichia coli, UniProt Q8VNN2); assay: detection-enzyme interference by beta-gal modulators – biochemical, E. coli enzyme, set 3, artefact control for CCR6 antagonist project, dose response (AID 504712); format: functional
Beta-galactosidase, sequence (Q8VNN2 whole entry): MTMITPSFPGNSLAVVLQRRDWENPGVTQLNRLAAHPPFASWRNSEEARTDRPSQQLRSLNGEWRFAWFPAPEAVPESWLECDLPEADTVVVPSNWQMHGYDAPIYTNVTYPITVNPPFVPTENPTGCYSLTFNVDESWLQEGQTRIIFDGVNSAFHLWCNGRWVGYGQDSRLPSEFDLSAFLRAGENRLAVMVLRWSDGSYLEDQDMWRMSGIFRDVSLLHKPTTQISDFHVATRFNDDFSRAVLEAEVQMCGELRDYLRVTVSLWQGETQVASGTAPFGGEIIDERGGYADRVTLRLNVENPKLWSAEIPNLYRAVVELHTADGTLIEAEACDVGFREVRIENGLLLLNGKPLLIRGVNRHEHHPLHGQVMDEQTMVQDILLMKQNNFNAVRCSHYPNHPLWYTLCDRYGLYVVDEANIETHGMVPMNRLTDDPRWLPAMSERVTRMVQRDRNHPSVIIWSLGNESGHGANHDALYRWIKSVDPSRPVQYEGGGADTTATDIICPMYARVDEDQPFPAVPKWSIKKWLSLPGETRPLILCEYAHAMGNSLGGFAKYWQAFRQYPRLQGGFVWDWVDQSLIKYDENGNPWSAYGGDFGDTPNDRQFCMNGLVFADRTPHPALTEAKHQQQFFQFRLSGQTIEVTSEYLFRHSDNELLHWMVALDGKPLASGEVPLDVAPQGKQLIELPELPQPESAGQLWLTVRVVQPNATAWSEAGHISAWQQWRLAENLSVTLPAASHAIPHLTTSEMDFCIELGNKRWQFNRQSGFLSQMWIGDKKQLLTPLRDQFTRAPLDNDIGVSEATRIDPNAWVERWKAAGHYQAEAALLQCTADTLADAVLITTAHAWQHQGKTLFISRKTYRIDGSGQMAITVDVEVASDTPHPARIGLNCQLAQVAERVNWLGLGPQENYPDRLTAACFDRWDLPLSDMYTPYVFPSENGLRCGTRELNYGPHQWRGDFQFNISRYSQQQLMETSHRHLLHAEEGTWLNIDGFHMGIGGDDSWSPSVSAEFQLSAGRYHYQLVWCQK

[2] = molecular target: C-C chemokine receptor type 6 (Homo sapiens, UniProt P51684); assay: antagonism of CCR6 beta-arrestin recruitment – cell-based, luminescent beta-arrestin readout, dose response (AID 504728); format: functional
C-C chemokine receptor type 6, sequence (P51684 whole entry): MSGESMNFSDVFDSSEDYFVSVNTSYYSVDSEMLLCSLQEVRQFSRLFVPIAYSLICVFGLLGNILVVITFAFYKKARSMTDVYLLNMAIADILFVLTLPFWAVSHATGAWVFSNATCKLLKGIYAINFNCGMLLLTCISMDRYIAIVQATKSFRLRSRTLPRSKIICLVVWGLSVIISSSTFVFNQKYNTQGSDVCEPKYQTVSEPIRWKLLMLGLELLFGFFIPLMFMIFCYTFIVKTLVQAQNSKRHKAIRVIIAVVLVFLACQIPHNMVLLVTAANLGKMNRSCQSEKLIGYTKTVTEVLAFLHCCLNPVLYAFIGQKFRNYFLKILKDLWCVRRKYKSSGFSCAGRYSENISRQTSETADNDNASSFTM

[3] = NIH3T3 cell viability loss – ATP luminescence, mouse fibroblasts, counter-screen, dose response (AID 2010); format: functional, cell-based;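 also: cells exposed to compound for about 90 hours before reading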
[4] = molecular target: T2, Replicative DNA helicase DnaB (Mycobacterium tuberculosis, UniProt P9WMR3); assay: DnaB intein splicing inhibitors, dose response, biochemical, cell-free fluorescence (AID 449749); format: functional
T2 sequence (P9WMR3 whole entry): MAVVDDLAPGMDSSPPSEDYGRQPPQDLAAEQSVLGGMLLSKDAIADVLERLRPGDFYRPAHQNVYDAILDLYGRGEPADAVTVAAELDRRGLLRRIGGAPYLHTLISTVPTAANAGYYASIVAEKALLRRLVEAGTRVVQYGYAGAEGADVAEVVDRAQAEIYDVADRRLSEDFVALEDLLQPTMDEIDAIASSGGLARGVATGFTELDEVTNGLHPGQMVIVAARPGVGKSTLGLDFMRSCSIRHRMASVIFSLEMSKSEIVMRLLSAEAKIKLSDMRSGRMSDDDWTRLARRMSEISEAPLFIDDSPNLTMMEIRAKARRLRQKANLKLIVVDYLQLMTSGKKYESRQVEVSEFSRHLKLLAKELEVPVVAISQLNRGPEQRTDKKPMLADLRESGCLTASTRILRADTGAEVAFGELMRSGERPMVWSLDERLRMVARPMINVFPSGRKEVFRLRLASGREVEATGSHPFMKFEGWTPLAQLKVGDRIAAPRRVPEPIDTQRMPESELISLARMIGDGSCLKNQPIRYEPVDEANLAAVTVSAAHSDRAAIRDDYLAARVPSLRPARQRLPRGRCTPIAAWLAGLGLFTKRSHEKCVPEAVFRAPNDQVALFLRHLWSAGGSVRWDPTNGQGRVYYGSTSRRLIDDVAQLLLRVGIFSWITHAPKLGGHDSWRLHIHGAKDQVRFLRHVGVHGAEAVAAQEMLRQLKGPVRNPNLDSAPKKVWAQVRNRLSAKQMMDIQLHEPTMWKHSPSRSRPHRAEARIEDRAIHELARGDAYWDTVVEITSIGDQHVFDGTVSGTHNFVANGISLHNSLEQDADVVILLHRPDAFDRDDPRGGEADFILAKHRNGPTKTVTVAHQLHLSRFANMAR

Q: With O=C1C(Nc2ccccc2)=C/C(=N/S(=O)(=O)c2cccs2)c2ccccc21 as the compound, how does the CC50 [1] read?
A: 1.8 µM (active)

Q: What about the IC50 (Hexokinase HKDC1) of the same compound?
A: 4.88 µM (active)

Q: And the IC50 (Beta-galactosidase)?
A: > 66.6 µM (inactive)

Q: And the IC50 [2]?
A: 34.8 µM (inactive)

Q: What about the EC50 [3] of the same compound?
A: 1.29 µM (active)

Q: What about the AC50 [4] of the same compound?
A: 0.187 µM (active)
